This is an account of results in paper PMC3335845, “In-Vivo Biodistribution and Safety of ^99mTc-LLP2A-HYNIC in Canine Non-Hodgkin Lymphoma” (PLoS ONE, 2012).

Series [1] is described as follows: Safety monitoring in dogs (vital signs, blood pressure, complete blood counts, serum biochemistry). Format: in vivo. The conditions noted are these: normal dogs and those with NHL.
Procedure: All 3 dogs were mixed breed dogs and after physical examination were clinically normal. […] Images of the whole body in orthogonal planes were acquired at 2 hours, 4 hours, and 6 hours after injection. Complete blood counts and serum biochemistry were performed before and after imaging.
Series [2] can be described thus: Organ uptake by gamma camera scintigraphy (organ:muscle ratio and percent injected dose). It counts as in vivo, dogs. The procedure: All dogs were imaged with a Gamma camera (Technicare Omega 500, Solon, Ohio, or IS2, Ottawa, Ontario). Images were obtained of the whole body in overlapping segments, in right lateral, left lateral, and sternal recumbency. Images were obtained to 200,000 counts, with a 256×256 bit matrix and 16-bit depth. A camera standard of 200 uCi in 10 mL of water was included in each image to ensure stable measurements over the scan period. Camera sensitivity was determined by placing the camera standard 30 cm from the detector and scanning for 1 minute. This calibration factor was used to convert individual organ emission counts to mCi.
Chemotherapy consisted of prednisone, vincristine, cyclophosphamide, and L-asparaginase. Two dogs had whole body computed tomography (CT) performed.
ROIs were drawn on the 2 hour images and duplicated for the opposite lateral projection and subsequent time points, and adjusted for altered patient position. […]
Organs that were clearly delineated on conjugate projections (liver, GI, bone marrow, lung) were measured using the geometric mean method, and smaller or peripherally located organs (kidney, mandibular lymph nodes, salivary gland) were measured using the effective point source method. Depth for depth correction was measured on orthogonal images. Lung activity was measured using an ROI in a posterior region and normalized to the total pixels of the lung. […] […] Camera sensitivity was measured using the camera standard. Percent injected dose and organ:muscle ratio were calculated for each imaging study at each time point. Imaging results are presented in graphical format as percent injected dose for each organ evaluated, as well as organ:muscle ratios.

The nature of series [3]: Whole body activity by handheld monitor at 1 m from the dog. Format: in vivo, dogs. The source says: All dogs were held overnight in a protected area with institutionally approved radiation safety protocols. Dogs were released from the facility after whole body radiation levels were less than 0.5 mR/hr at the skin surface and less than 0.05 mR/hr at 1 m.
Another series has as its system canine lymphoma. Details: method as in PMID 16767086, PMID 19289419, PMID 22177114. As to conditions: in vitro, canine cell lines and tissue samples; less than in human cell lines and xenografts; cited from earlier work. Background: A xenograft is tissue or cells of one species grown in another, often human tumour cells in immunodeficient mice.
For another series, the system named is normal lymphocytes. Details: method as in PMID 16767086, PMID 22177114. The conditions noted are these: increases with activation; cited from earlier work.
The next series deals with activated α4β1 integrin. Details: method as in PMID 9479864. As to conditions: cited from earlier work.
Details of series [4]: method as in PMID 16767086. The conditions noted are these: human plasma; cited from earlier work.

As to `Cc1ccccc1NC(=O)Nc1ccc(CC(=O)N[C@@H](CCCCNC(=O)/C=C/c2cccnc2)C(=O)N[C@@H](CCCC(=O)O)C(=O)NC2(C(=O)NCCOCCOCCNC(=O)CCC(=O)NCCOCCOCCNC(=O)CCC(=O)N[C@@H](CCCCNC(=O)c3ccc(NN)nc3)C(N)=O)CCCCC2)cc1` [^99mTc-LLP2A-HYNIC, metal not drawn], the overall safety entry in series [1] is on record as “safe”. Moreover, the route of elimination result in series [2] (dogs) is reported as “mainly eliminated through the kidneys”. The “organ:muscle ratio” value is given as 7.00 in series [2] (kidney affected with lymphoma (dog L1), highest ratio of tumor tissues) and 5.27 in series [2] (unaffected kidney in the same dog (L1)). Further, the “mean whole body activity” value in series [3] (5 minutes post-injection) is on record as 0.5 mR/h; in series [3] (360 min) it was 0.13 mR/h. The “whole body activity, range” value in series [3] (5 minutes post-injection) was 0.2–0.8 mR/h. The same compound registered a whole body activity in series [3] (24 hours) of 0.04 mR/h.

With “N-[[4-[[[(2-ethylphenyl)amino]carbonyl]amino]phenyl]acetyl]-N ^ε-6-[(2E)-1-oxo-3-(3-pyridinyl-2-propenyl)]-L-lysyl-L-2-aminohexanedioyl-(1-amino-1-cyclohexane)carboxamide [LLP2A]”, in the series with canine lymphoma, the “affinity to canine lymphoma” value was “good affinity”. Also, the “affinity to normal lymphocytes” value with normal lymphocytes is “mild affinity”. Besides, in the series with activated α4β1 integrin, the “affinity to activated α4β1 on lymphoma cells” value is reported as “high affinity”. Besides, in series [4], the resistance to proteases result was “resistant to proteases in human plasma”.
